Measurements published in patent US20260183350A1, “ANTIBIOTIC-RESISTANT BACTERIA” (priority 2022, published 2026).

Columns and labels:
[1] = test system: faecal microbiota; assay: Faecal batch culture with antibiotics promoting CRE colonisation: 1H-NMR of nutrients and metabolites; format: cell-based, human; details: 11 healthy donors, antibiotic at faecal concentration, 24 hours anaerobic
Description: (§1) The inventors performed faecal culture experiments to measure the effects of eight broad-spectrum antibiotics on the faecal microbiota collected from 11 healthy human donors. Faecal culture experiments were performed under anaerobic conditions using a complex gut growth medium that was designed to mimic the nutrients found in the human distal gut (McDonald, J. A. et al. Evaluation of microbial community reproducibility, stability and composition in a human distal gut chemostat model. J. Microbiol. Methods 95, 167-174 (2013)). […] Moon, Y. S., Chung, K. C. & Gill, M. A. Pharmacokinetics of meropenem in animals, healthy volunteers, and patients. Clin Infect Dis 24, S249-S255 (1997). Kager, L., Brismar, B., Malmborg, A. S. & Nord, C. E. Imipenem concentrations in colorectal surgery and impact on the colonic microflora. Antimicrob Agents Chemother 33, 204-8 (1989). Pletz, M. et al. Ertapenem pharmacokinetics and impact on intestinal microflora, in comparison to those of ceftriaxone, after multiple dosing in male and female volunteers. Antimicrob Agents Chemother 48, 3765-72 (2004). Nord, C. E., Brismar, B., Kasholm-Tengve, B. & Tunevall, G. Effect of piperacillin/tazobactam treatment on human bowel microflora. J Antimicrob Chemother 31, 61-5 (1993). […] Antimicrob Agents Chemother 63, 2244 (2019). Pessôa de Menezes e Silva, C H. Elaboration and evaluation of a new screening medium for detection and presumptive identification of extended-spectrum beta-lactamase-producing organisms (ESBL). Braz J Microbiol 31, 271-274 (2000). Brismar, B., Edlund, C., Malmborg, A. S. & Nord, C. […] Antimicrob Agents Chemother 34, 481-3 (1990)). Cultures were incubated anaerobically at 37° C. for 24 hours. Samples were analysed by ^1H-NMR spectroscopy (for nutrient and metabolite profiling) and […] rRNA gene sequencing with 16S rRNA gene qPCR (for bacterial composition and biomass) (McDonald, J. A. K. et a/. Inhibiting Growth of Clostridioides difficile by Restoring Valerate, Produced by the Intestinal Microbiota. Gastroenterology 155, 1495-1507 (2018)).
Supernatants were prepared from faeces by vortexing 300 mg of faeces in 900 μl of HPLC-grade water for 10 minutes at 3000 rpm followed by centrifugation at 17,000×g for 10 minutes at 4° C. Supernatants were prepared from faecal culture samples by centrifugation at 17,000×g for 10 minutes at 4° C. Supernatants were frozen at −80° C. until they were ready for analysis.
^1H-NMR spectroscopy was performed as previously described (McDonald, J. A. K. et al. Inhibiting Growth of Clostridioides difficile by Restoring Valerate, Produced by the Intestinal Microbiota. Gastroenterology 155, 1495-1507 (2018)). Briefly, sample supernatants were randomized and defrosted at room temperature for 1 hour. Sample supernatants were then centrifuged for 10 min at 17 000×g and 4° C. The pellet was discarded and 400 μl of supernatant was added to 250 μl NMR buffer (28.85 g Na2HPO4, 5.25 g NaH2PO4, 1 mM TSP, 3 mM NaN3, deuterium oxide to 1 L, pH 7.4). 600 μl of sample was used to fill each 5 mm NMR tube to be loaded into the SampleJet system.
^1H-NMR spectroscopy was performed using the Bruker AVANCE III HD 800 MHz spectrometer (Bruker Bio-Spin, Rheinstetten, Germany). 1D spectra (a standard NOESYGPPR1D pulse sequence (RD-90°-t1-90°-tm-90°-ACQ)) as well as 2D spectra (standard 2D JRESGPPRQF pulse sequence) were acquired. A recycle delay of 4 seconds and mixing time of 100 ms was used. The 90° pulse length was approximately 10 μs and 32 scans were recorded.
NMR spectra were imported into MATLAB r2019b (The Mathworks, USA) using an in-house script. Spectra were aligned and the water (4.6-5 ppm) and TSP (−0.2-0.2 ppm) peaks were cut. Compounds were identified by comparison to spectral databases in Chenomx NMR Suite (Chenomx, Canada). Representative peaks were integrated for quantification of compounds.

[2] = test system: faecal microbiota; assay: Faecal batch culture with antibiotics promoting CRE colonisation: 16S rRNA gene sequencing and qPCR; format: cell-based, human; details: 11 healthy donors, antibiotic at faecal concentration, 24 hours anaerobic
Description: as §1

CO/N=C(\C(=O)N[C@@H]1C(=O)N2C(C(=O)O)=C(CSc3nc(=O)c(=O)[nH]n3C)CS[C@H]12)c1csc(N)n1 [CRO, ceftriaxone]
Change in butyrate concentration in faecal cultures [1]: decreased
Change in abundance of bacterial families relative to antibiotic-naive faecal cultures [2]: decreased the abundance of Bifidobacteriaceae

CO/N=C(\C(=O)N[C@@H]1C(=O)N2C(C(=O)O)=C(COC(C)=O)CS[C@H]12)c1csc(N)n1 [CTX, cefotaxime]
Change in butyrate concentration in faecal cultures [1]: increased
Change in abundance of bacterial families relative to antibiotic-naive faecal cultures [2]: decreased the abundance of Bifidobacteriaceae

CC(C)(O/N=C(\C(=O)N[C@@H]1C(=O)N2C(C(=O)[O-])=C(C[n+]3ccccc3)CS[C@H]12)c1csc(N)n1)C(=O)O [CAZ, ceftazidime]
Change in butyrate concentration in faecal cultures [1]: increased
Change in abundance of bacterial families relative to antibiotic-naive faecal cultures [2]: decreased the abundance of Bifidobacteriaceae
